Data on 36 compounds can be found in patent publication US8802700B2 (Vertex Pharmaceuticals Incorporated, priority 2010, dated 2014).

The assay has as its target T1, ΔF508-CFTR (Homo sapiens, UniProt P13569, DEL508-508).
T1 construct: expressed in transfected cells
The assay is described as follows: Membrane potential optical assay (FRET voltage-sensor dyes, VIPR), identification of potentiator compounds. The class given is cell-based. The note with it: Table 3, assay not given; for Emax: read-out: % Activity (% Efficacy, relative efficacy). The method, boiled down: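 NIH3T3 mouse fibroblasts stably expressing ΔF508-CFTR, cultured 24 h at 27 °C, were loaded with FRET voltage dyes CC2-DMPE and DiSBAC2(3). Double-addition format: first addition of Cl⁻-free (gluconate) medium with or without compound; membrane-potential change read as fluorescence on VIPR II.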

Each structure is given as a SMILES string. Bounds are passed on as bounds.

T1 sequence (P13569 with tags, fused parts or gaps DEL508-508): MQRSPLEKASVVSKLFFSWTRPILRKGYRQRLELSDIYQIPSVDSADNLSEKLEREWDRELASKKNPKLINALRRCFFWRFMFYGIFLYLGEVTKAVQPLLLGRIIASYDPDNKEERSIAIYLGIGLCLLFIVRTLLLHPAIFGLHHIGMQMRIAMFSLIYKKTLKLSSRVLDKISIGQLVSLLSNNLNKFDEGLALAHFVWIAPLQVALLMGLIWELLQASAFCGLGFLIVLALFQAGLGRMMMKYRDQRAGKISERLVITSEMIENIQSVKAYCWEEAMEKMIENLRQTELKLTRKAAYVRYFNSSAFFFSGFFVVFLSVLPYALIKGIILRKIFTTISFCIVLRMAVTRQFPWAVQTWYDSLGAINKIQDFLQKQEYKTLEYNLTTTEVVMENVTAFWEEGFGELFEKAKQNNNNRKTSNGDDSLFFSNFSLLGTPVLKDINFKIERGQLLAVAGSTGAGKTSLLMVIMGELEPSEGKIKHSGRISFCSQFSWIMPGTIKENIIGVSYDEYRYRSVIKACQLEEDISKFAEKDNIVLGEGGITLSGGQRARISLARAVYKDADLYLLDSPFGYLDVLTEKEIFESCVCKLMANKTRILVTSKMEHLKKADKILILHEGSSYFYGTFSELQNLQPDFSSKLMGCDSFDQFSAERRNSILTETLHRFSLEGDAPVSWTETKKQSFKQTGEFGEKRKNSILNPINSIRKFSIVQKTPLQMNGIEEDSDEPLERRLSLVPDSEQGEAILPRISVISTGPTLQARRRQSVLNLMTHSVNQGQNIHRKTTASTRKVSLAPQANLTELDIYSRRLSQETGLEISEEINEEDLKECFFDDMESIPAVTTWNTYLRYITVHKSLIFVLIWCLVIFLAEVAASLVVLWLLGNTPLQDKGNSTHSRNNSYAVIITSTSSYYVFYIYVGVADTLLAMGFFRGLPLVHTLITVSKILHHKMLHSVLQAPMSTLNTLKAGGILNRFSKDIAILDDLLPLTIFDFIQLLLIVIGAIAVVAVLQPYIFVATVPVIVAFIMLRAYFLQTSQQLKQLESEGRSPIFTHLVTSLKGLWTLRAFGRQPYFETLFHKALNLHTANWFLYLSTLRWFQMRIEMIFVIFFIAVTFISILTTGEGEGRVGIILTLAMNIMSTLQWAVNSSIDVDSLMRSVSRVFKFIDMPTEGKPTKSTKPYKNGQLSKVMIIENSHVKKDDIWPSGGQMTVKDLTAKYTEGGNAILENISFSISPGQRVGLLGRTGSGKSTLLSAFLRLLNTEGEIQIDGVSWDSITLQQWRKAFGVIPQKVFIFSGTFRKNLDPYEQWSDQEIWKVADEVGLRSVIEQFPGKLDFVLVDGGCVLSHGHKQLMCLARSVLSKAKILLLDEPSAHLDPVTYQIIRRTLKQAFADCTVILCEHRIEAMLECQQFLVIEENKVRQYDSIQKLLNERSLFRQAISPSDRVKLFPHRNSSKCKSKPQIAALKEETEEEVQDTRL

As to `Cc1cccc2[nH]cc(C(=O)Nc3cc4[nH]ccc4cc3C(F)(F)F)c(=O)c12` [Compound 661, 5-methyl-4-oxo-N-[5-(trifluoromethyl)-1H-indol-6-yl]-1H-quinoline-3-carboxamide], the Emax is 25 to 100%.

Turning to `CC(C)(C)c1ccc(O)cc1NC(=O)c1c[nH]c2ccccc2c1=O` [Compound 662, N-(5-hydroxy-2-tert-butyl-phenyl)-4-oxo-1H-quinoline-3-carboxamide], the Emax was greater than 100%. Still for that read-out and setting: then `CC(C)(C)c1cc(C(C)(C)C)c(NC(=O)c2c[nH]c3c(Cl)cccc3c2=O)cc1O` [Compound 663, 8-chloro-N-(5-hydroxy-2,4-ditert-butyl-phenyl)-4-oxo-1H-quinoline-3-carboxamide], with 25 to 100%; and `CC(C)(C)c1cccc(NC(=O)c2c[nH]c3ccc(F)cc3c2=O)c1` [Compound 664, 6-fluoro-4-oxo-N-(3-tert-butylphenyl)-1H-quinoline-3-carboxamide], with 25 to 100%; and `CC(C)(C)c1ccc(O)cc1NC(=O)c1c[nH]c2ccc(F)cc2c1=O` [Compound 665, 6-fluoro-N-(5-hydroxy-2-tert-butyl-phenyl)-4-oxo-1H-quinoline-3-carboxamide], with 25 to 100%.

`COc1cc(NC(=O)c2c[nH]c3ccc(F)cc3c2=O)cc(C(F)(F)F)c1` [Compound 666, 6-fluoro-N-[3-methoxy-5-(trifluoromethyl)phenyl]-4-oxo-1H-quinoline-3-carboxamide]: the Emax lay in the range of 25 to 100%. Turning to `Cc1cccc2[nH]cc(C(=O)Nc3ccc(N4CC(F)(F)C[C@H]4C)cc3C(F)(F)F)c(=O)c12` [Compound 667, (R)-N-(4-(4,4-difluoro-2-methylpyrrolidin-1-yl)-2-(trifluoromethyl)phenyl)-5-methyl-4-oxo-1,4-dihydroquinoline-3-carboxamide], the Emax lay in the range of 25 to 100%. On the same count and under the same terms, in the case of `O=C(Nc1ccc(N2CCC(CO)CC2)cc1C(F)(F)F)c1c[nH]c2ccccc2c1=O` [Compound 668, N-[4-[4-(hydroxymethyl)-1-piperidyl]-2-(trifluoromethyl)phenyl]-4-oxo-1H-quinoline-3-carboxamide] it was 25 to 100%. Take `C[C@H]1CCCN1c1ccc(NC(=O)c2c[nH]c3cccc(C(F)(F)F)c3c2=O)c(C(F)(F)F)c1` [Compound 669, (S)-N-(4-(2-methylpyrrolidin-1-yl)-2-(trifluoromethyl)phenyl)-4-oxo-5-(trifluoromethyl)-1,4-dihydroquinoline-3-carboxamide]: the Emax lay in the range of 25 to 100%.

Turning to `O=C(Nc1ccc(N2CCC[C@@H]2CO)cc1C(F)(F)F)c1c[nH]c2ccccc2c1=O` [Compound 670, (R)-N-(4-(2-(hydroxymethyl)pyrrolidin-1-yl)-2-(trifluoromethyl)phenyl)-4-oxo-1,4-dihydroquinoline-3-carboxamide], the Emax was in the range of 25 to 100%. In the case of `Nc1nc2ccc(NC(=O)c3c[nH]c4ccccc4c3=O)cc2s1` [Compound 671, N-(2-aminobenzothiazol-6-yl)-4-oxo-1H-quinoline-3-carboxamide], the Emax is 25 to 100%. In the case of `CC(C)(C)c1cc(C(C)(C)C)c(NC(=O)c2c[nH]c3cc(F)c(F)cc3c2=O)cc1O` [Compound 672, 6,7-difluoro-N-(5-hydroxy-2,4-ditert-butyl-phenyl)-4-oxo-1H-quinoline-3-carboxamide], the Emax is 25 to 100%. Consider `O=C(Nc1ccc(N2CCN(CCO)CC2)cc1C(F)(F)F)c1c[nH]c2ccccc2c1=O` [Compound 673, N-[4-[4-(2-hydroxyethyl)piperazin-1-yl]-2-(trifluoromethyl)phenyl]-4-oxo-1H-quinoline-3-carboxamide], for which the Emax was in the range of 25 to 100%. For `O=C(Nc1ccc(N2CCCC2)cc1)c1c[nH]c2ccccc2c1=O` [Compound 674, 4-oxo-N-(4-pyrrolidin-1-ylphenyl)-1H-quinoline-3-carboxamide], the EC50 was less than 10 µM and the Emax lay in the range of 25 to 100%. Consider `COc1cc(N2CCCC2)ccc1NC(=O)c1c[nH]c2ccccc2c1=O` [Compound 675, N-(2-methoxy-4-pyrrolidin-1-yl-phenyl)-4-oxo-1H-quinoline-3-carboxamide], for which the Emax fell in the range of 25 to 100%. `Cc1ccc(C(F)(F)F)cc1NC(=O)c1c[nH]c2cccc(O)c2c1=O` [Compound 676, 5-hydroxy-N-[2-methyl-5-(trifluoromethyl)phenyl]-4-oxo-1H-quinoline-3-carboxamide]: the Emax was in the range of 25 to 100%. As for `CC(C)(C)c1cc(F)c(NC(=O)c2c[nH]c3cc(C#N)ccc3c2=O)cc1O` [Compound 677, 7-cyano-N-(2-fluoro-5-hydroxy-4-tert-butyl-phenyl)-4-oxo-1H-quinoline-3-carboxamide], the Emax was in the range of 25 to 100%. With `Cc1ccc(C(F)(F)F)cc1NC(=O)c1c[nH]c2ccc(F)cc2c1=O` [Compound 678, 6-fluoro-N-[2-methyl-5-(trifluoromethyl)phenyl]-4-oxo-1H-quinoline-3-carboxamide], the Emax was 25 to 100%. Regarding `CC(C)(C)c1cc2cc[nH]c2cc1NC(=O)c1c[nH]c2ccc(O)cc2c1=O` [Compound 679, 6-hydroxy-4-oxo-N-(5-tert-butyl-1H-indol-6-yl)-1H-quinoline-3-carboxamide], the Emax fell in the range of 25 to 100%.

Turning to `CCOc1ccc2[nH]cc(C(=O)Nc3cc4[nH]ccc4cc3C(C)(C)C)c(=O)c2c1` [Compound 681, 6-ethoxy-4-oxo-N-(5-tert-butyl-1H-indol-6-yl)-1H-quinoline-3-carboxamide], the Emax fell in the range of 25 to 100%. For the compound `CCc1cccc2c(=O)c(C(=O)Nc3ccc(C(C)C)cc3C(F)(F)F)c[nH]c12` [Compound 682, 8-ethyl-N-[4-isopropyl-2-(trifluoromethyl)phenyl]-4-oxo-1H-quinoline-3-carboxamide], the Emax was less than 25%. Consider `Cc1cc(C(C)(C)C)c(O)cc1NC(=O)c1c[nH]c2ccc(F)cc2c1=O` [Compound 683, 6-fluoro-N-(5-hydroxy-2-methyl-4-tert-butyl-phenyl)-4-oxo-1H-quinoline-3-carboxamide], for which the Emax lay in the range of 25 to 100%. On to `C[C@@H]1CCCN1c1ccc(NC(=O)c2c[nH]c3ccc(F)cc3c2=O)c(C(F)(F)F)c1` [Compound 684, (R)-6-fluoro-N-(4-(2-methylpyrrolidin-1-yl)-2-(trifluoromethyl)phenyl)-4-oxo-1,4-dihydroquinoline-3-carboxamide], for which the Emax lay in the range of 25 to 100%.

As for `COc1ccc2[nH]cc(C(=O)Nc3ccc(N4[C@H](C)CC[C@H]4C)cc3C(F)(F)F)c(=O)c2c1` [Compound 685, N-(4-((2R,5R)-2,5-dimethylpyrrolidin-1-yl)-2-(trifluoromethyl)phenyl)-6-methoxy-4-oxo-1,4-dihydroquinoline-3-carboxamide], the Emax lay in the range of 25 to 100%. `O=C(Nc1ccc(N2CCCCC2)cc1C(F)(F)F)c1c[nH]c2ccccc2c1=O` [Compound 686, 4-oxo-N-[4-(1-piperidyl)-2-(trifluoromethyl)phenyl]-1H-quinoline-3-carboxamide]: the Emax lay within 25 to 100%. As to `CC(C)(C)c1cc(C(C)(C)C)c(NC(=O)c2c[nH]c3c(F)cccc3c2=O)cc1O` [Compound 687, 8-fluoro-N-(5-hydroxy-2,4-ditert-butyl-phenyl)-4-oxo-1H-quinoline-3-carboxamide], the Emax lay within 25 to 100%. As for `Cc1ccc2[nH]cc(C(=O)Nc3cc(O)c(C(C)(C)C)cc3C(C)(C)C)c(=O)c2c1` [Compound 688, N-(5-hydroxy-2,4-ditert-butyl-phenyl)-6-methyl-4-oxo-1H-quinoline-3-carboxamide], the Emax lay within 25 to 100%.

On to `O=C(Nc1ccc(N2CCC2)cc1C(F)(F)F)c1c[nH]c2ccccc2c1=O` [Compound 689, N-[4-azetidin-1-yl-2-(trifluoromethyl)phenyl]-4-oxo-1H-quinoline-3-carboxamide], for which the Emax fell in the range of 25 to 100%. Same read-out and setting: then `COC(=O)c1c(NC(=O)c2c[nH]c3ccccc3c2=O)csc1C(C)(C)C` [Compound 690, methyl 4-[(4-oxo-1H-quinolin-3-yl)carbonylamino]-2-tert-butyl-thiophene-3-carboxylate], with 25 to 100%; and `COc1cc(NC(=O)c2c[nH]c3ccccc3c2=O)cc(C(F)(F)F)c1` [Compound 691, N-[3-methoxy-5-(trifluoromethyl)phenyl]-4-oxo-1H-quinoline-3-carboxamide], with 25 to 100%; and `O=C(Nc1ccccc1-c1ccccn1)c1c[nH]c2ccccc2c1=O` [Compound 692, 4-oxo-N-[2-(2-pyridyl)phenyl]-1H-quinoline-3-carboxamide], with 25 to 100%. `O=C(Nc1ccc2cc(C(F)(F)F)[nH]c2c1)c1c[nH]c2cccc(O)c2c1=O` [Compound 693, 5-hydroxy-4-oxo-N-[2-(trifluoromethyl)-1H-indol-6-yl]-1H-quinoline-3-carboxamide]: the Emax is 25 to 100%.

Take `CC(C)(C)c1cc(C(C)(C)C)c(NC(=O)c2c[nH]c3cc(OC(F)(F)F)ccc3c2=O)cc1O` [Compound 694, N-(5-hydroxy-2,4-ditert-butyl-phenyl)-4-oxo-7-(trifluoromethoxy)-1H-quinoline-3-carboxamide]: the Emax is 25 to 100%. Still for that read-out and setting: then `O=C(Nc1cc(O)c(Cl)cc1F)c1c[nH]c2ccccc2c1=O` [Compound 695, N-(4-chloro-2-fluoro-5-hydroxy-phenyl)-4-oxo-1H-quinoline-3-carboxamide], with 25 to 100%; and `O=C(Nc1ccc(OC(F)(F)F)c(N2CCCCC2)c1)c1c[nH]c2ccccc2c1=O` [Compound 696, 4-oxo-N-[3-(1-piperidyl)-4-(trifluoromethoxy)phenyl]-1H-quinoline-3-carboxamide], with 25 to 100%; and `Cc1cccc2[nH]cc(C(=O)Nc3ccc(N4CCC[C@H]4C)cc3C(F)(F)F)c(=O)c12` [Compound 697, (R)-5-methyl-N-(4-(2-methylpyrrolidin-1-yl)-2-(trifluoromethyl)phenyl)-4-oxo-1,4-dihydroquinoline-3-carboxamide], with 25 to 100%.
